Measurements taken from patent US9080154B1, “Cancer stem cell survivor lines” (BOWLING GREEN STATE UNIVERSITY, priority 2012, dated 2015).

Assays:
KY-10 cell line [1] = test: crystal violet assay, cells remaining after curcumin; format: cell-based, human; conditions: 30 hrs, concentration that kills half the cells
Description: (§1) To determine the effect of different doses of curcumin on the ESCC lines, each cell line was plated in 24-well plates (Corning) at a density of 5×10^4 cells/well in complete DMEM, and incubated at 37° C. Curcumin (Sigma-Aldrich, St Louis, Mo.) was dissolved in dimethyl sulfoxide (DMSO) to make a stock solution of 20 mM curcumin. For each experiment, stock solution was diluted to the final concentrations (20, 30, 40, 60 and 80 μM) in complete DMEM. Twenty-four hours after plating, the wells were washed with PBS once, and 1 ml of each curcumin dosage was added (4 wells/dosage) and incubated for 30 hrs. Four other wells received complete DMEM or complete DMEM with 0.2% DMSO as controls. The inhibition of cell growth in response to curcumin treatment was assayed with the crystal violet staining assay according to a standard protocol. Briefly, the cells in each well were washed once with PBS, stained with 200 μl crystal violet in 50% ethanol (10 mg/ml), and incubated at room temperature for 10 min. The crystal violet was then removed and the wells were washed two times with distilled water, and 600 μl of 1% sodium dodecylsulfate (SDS) in water was added to each well. The plates were maintained overnight at room temperature on a shaker to dissolve the dye. Absorbance was read at 490 nm using a Wallac Victor 1420 Multilabel plate reader (Perkin Elmer, Waltham, Mass.). The background readings from the SDS solution were subtracted from each reading and the percentage of cells remaining after curcumin treatment was calculated. The results were plotted in OriginPro 7.5 (OriginLab) and analyzed by ANOVA.
(§2) To assess the sensitivity of the six human ESCC lines to curcumin, the cell lines (TE-1, TE-8, KY-5, KY-10, YES-1, and YES-2) were plated in 24-well plates for 24 hrs and then exposed to 20, 30, 40, 60, and 80 μM curcumin and to 0.2% DMSO as a control for 30 hrs. The resulting cell density was determined by standard crystal violet assay. The cell density remaining after the treatment is shown in the dose-response curve (FIG. 2). […] However, KY-5 had the highest percentage of cells remaining at the highest curcumin concentration, and the YES-2 cell line had the lowest percentage of cells remaining. When the cell lines were ranked from low to high according to their sensitivity to 60 μM curcumin the order was: KY-5, YES-1, TE-8, TE-1, KY-10, and YES-2.

KY-5 cell line [2] = test: as above; format: cell-based, human; conditions: 30 hrs
Description: as §1, §2

YES-2 cell line [3] = test: as above; format: cell-based, human; conditions: 30 hrs
Description: as §1, §2

[4] = tested on: six human ESCC lines (TE-1, TE-8, KY-5, KY-10, YES-1, YES-2); test: as above; format: cell-based; conditions: 20-80 μM curcumin, 30 hrs; all six ESCC lines
Description: as §1, with “The inhibition of cell growth in response to curcumin treatment was assayed with the crystal violet staining assay according to a standard protocol. Briefly, the cells in each well were washed once with PBS, stained with 200 μl crystal violet in 50% ethanol (10 mg/ml), and incubated at room temperature for 10 min. The crystal violet was then removed and the wells were washed two times with distilled water, and 600 μl of 1% sodium dodecylsulfate (SDS) in water was added to each well. The plates were maintained overnight at room temperature on a shaker to dissolve the dye.” left out
To assess the sensitivity of the six human ESCC lines to curcumin, the cell lines (TE-1, TE-8, KY-5, KY-10, YES-1, and YES-2) were plated in 24-well plates for 24 hrs and then exposed to 20, 30, 40, 60, and 80 μM curcumin and to 0.2% DMSO as a control for 30 hrs. The resulting cell density was determined by standard crystal violet assay. […]

KY-10 cell line [5] = test: surviving colonies after curcumin treatment; format: cell-based, human; conditions: 60 μM curcumin, 30 hrs
Description: (§3) To select for a curcumin-surviving cell subpopulation, each of the ESCC cell lines was cultured in 100-mm dishes (1×10^5 cells/dish) with complete DMEM and incubated at 37° C. until reaching near confluency, approximately 80%. After incubation, the medium was removed and the cells were incubated in complete DMEM containing either 40 or 60 μM curcumin in dissolved in 0.2% DMSO for 30 hrs. After incubation, the medium-containing curcumin was removed and replaced with complete DMEM to allow cells that survived the treatment to grow. After the surviving cells formed colonies (normally four weeks after treatment), the colonies were counted, trypsinized, and passaged. The cell lines that developed were designated the curcumin-surviving cell lines.
(§4) According to the dose-response results, 60 μM curcumin was chosen to select for the curcumin-surviving cell line subpopulations. To establish this subpopulation, 1×10^5 cells from each ESCC lines were plated into a 100 mm tissue culture dishes and incubated until they reached near confluency. The cells were then exposed to 60 μM curcumin for 30 hrs. and the surviving colonies formed were counted. The number of colonies formed after 60 μM curcumin treatment varied among the six cell lines.

KY-5 cell line [6] = test: surviving colonies after curcumin treatment; format: cell-based, human; conditions: 60 μM curcumin, 30 hrs
Description: as §3, §4

TE-1 cell line = test: surviving colonies after curcumin treatment; format: cell-based, human; conditions: 60 μM curcumin, 30 hrs
Description: as §3, §4

TE-8 cell line = test: surviving colonies after curcumin treatment; format: cell-based, human; conditions: 60 μM curcumin, 30 hrs
Description: as §3, §4

YES-1 cell line = test: surviving colonies after curcumin treatment; format: cell-based, human; conditions: 60 μM curcumin, 30 hrs
Description: as §3, §4

YES-2 cell line [7] = test: surviving colonies after curcumin treatment; format: cell-based, human; conditions: 30 hrs
Description: as §3, §4

ALDH1A1 [8] = test: ALDH1A1 immunocytochemistry of curcumin-surviving lines; format: cell-based, human; conditions: survived 60 μM curcumin
Description: as §3
(§5) To assess the expression of the stem cell markers ALDH1A1 and CD44 in both the original ESCC cell lines and the curcumin-surviving cell lines, each line was grown on glass cover slips in complete DMEM. After two days, the cover slips were rinsed with PBS and fixed with methanol for 5 min. The cover slips were then washed three times with PBS, exposed to 0.3% hydrogen peroxide for 3 min and rinsed three times with PBS. […]
(§6) The images of cell cultures immunostained for ALDH1A1 or CD44 were analyzed with ImageJ (NIH) and OriginLab (Microcal) software. […]

CD44 = CD44 immunocytochemistry of curcumin-surviving lines; format: cell-based, human
Description: as §3, §5, §6

ALDH1A1 [9] = test: ALDH1A1 level by ELISA in curcumin-surviving lines; format: cell-based, human; conditions: all six surviving lines; t-test p<0.005
Description: (§7) To select for a curcumin-surviving cell subpopulation, each of the ESCC cell lines was cultured in 100-mm dishes (1×10^5 cells/dish) with complete DMEM and incubated at 37° C. until reaching near confluency, approximately 80%. After incubation, the medium was removed and the cells were incubated in complete DMEM containing either 40 or 60 μM curcumin in dissolved in 0.2% DMSO for 30 hrs. After incubation, the medium-containing curcumin was removed and replaced with complete DMEM to allow cells that survived the treatment to grow. After the surviving cells formed colonies (normally four weeks after treatment), the colonies were counted, trypsinized, and passaged. The cell lines that developed were designated the curcumin-surviving cell lines. To determine the level of ALDH1A1 and RelA (p65), the major subunit of transcription factor (NF-κB), on both curcumin-surviving cells and original cell lines, ELISA was performed as described previously. Briefly, each cell line was cultured in 96-well plates (5×10^4 cells/well) and incubated for 24 hrs at 37° C. After incubation, the wells were washed once with PBS and fixed with methanol for 5 min; the wells were then washed twice with PBS. […] The antigen-antibody reactions were measured by determining the optical density (O.D.) at 410 nm using MR-600 microwell plate reader (Dynatech Lab Inc.). The resulting absorbance was analyzed using ANOVA.

[10] = tested on: RelA (p65), the major subunit of NF-κB; test: NF-κB level by ELISA in curcumin-surviving lines; format: cell-based, human
Description: as §7, with “PBS. Different dilutions of each antibody (anti-p65, Santa Cruz Biotechnology, SC-109, 200 μg/ml, and anti-ALDH1A1, Proteintech Group, 15910-1-AP, 133 μg/ml) were prepared in complete DMEM (1:50, 1:100, 1:200 and 1:500, 1:1000, 1:2000, respectively). The wells were incubated with 100 μl of each dilution (3 wells/dilution) for 2 hrs at 37° C. After incubation, the wells were washed with PBS three times and incubated with 100 μl/well of galactosidase-conjugated goat anti-rabbit secondary antibody (Southern Biotech, Birmingham, Ala.) (1:500 dilution in complete DMEM) for 2 hrs at 37° C.” for “PBS.”

[11] = concentration that kills half the cells

With COc1cc(/C=C/C(=O)CC(=O)/C=C/c2ccc(O)c(OC)c2)ccc1O [curcumin] the LD50 (KY-10 cell line [1]) was “less than 10 μM”, the “cells remaining after curcumin” value (KY-5 cell line [2]; 80 μM curcumin, crystal violet) was 37% and the LD50 (KY-5 cell line [2]; [11]) was 32 µM. The “attached cells remaining after curcumin” value (YES-2 cell line [3]; 80 μM curcumin, crystal violet) was 4%, the LD50 (YES-2 cell line [3]; [11]) was 15 µM and the reduction in cells [4] was “reduction in cells in a dosage dependent manner”. For the same compound, the “number of surviving colonies formed” value (KY-10 cell line [5]) was 19, the “number of surviving colonies formed” value (KY-5 cell line [6]) was “too many colonies to count” and the “number of surviving colonies formed” value (TE-1 cell line) was 8. For the same compound, the “number of surviving colonies formed” value (TE-8 cell line) was 17, the “number of surviving colonies formed” value (YES-1 cell line) was 25 and the “number of surviving colonies formed” value (YES-2 cell line [7]; 40 μM curcumin) was 15. The “number of surviving colonies formed” value (YES-2 cell line [7]; 60 μM curcumin) was 0, the “percentage of high ALDH1A1-staining cells in curcumin-surviving line” value (ALDH1A1 [8]; KY-5S, original lines ranged 11.3% to 55.7%, KY-5 greatest) was 19% and the “percentage of high ALDH1A1-staining cells in curcumin-surviving line” value (ALDH1A1 [8]; TE-8S) was 0%. For the same compound, the “percentage of high CD44-staining cells in curcumin-surviving line” value (CD44; YES-1S, survived 60 μM curcumin, original YES-1 16%) was 6.5%, the “percentage of high CD44-staining cells in curcumin-surviving line” value (CD44; YES-2S, survived 40 μM curcumin, original YES-2 19%) was 9.2% and the “ALDH1A1 level of curcumin-surviving lines compared to original lines” value (ALDH1A1 [9]) was “lower ALDH1A1 level”. For the same compound, the “NF-κB level of curcumin-surviving lines compared to original lines” value ([10]; KY-5, YES-1 and YES-2 surviving lines, t-test p<0.005) was “lower NF-κB levels”, the “NF-κB level of curcumin-surviving line compared to original line” value ([10]; KY-10 surviving line, t-test p>0.05) was “no difference” and the “NF-κB level of curcumin-surviving lines compared to original lines” value ([10]; TE-1 and TE-8 surviving lines) was “increase of NF-κB level”.
